Converted amounts (≈) assume the structure as drawn. “And” between values parts separate entries of the source, which are not always exact repeats. Equal values may be shown once. Where a name gives a salt, the structure may show the parent alone. Read-outs that look alike come from different tables or passages of the source.
What was measured:
[1] = tested on: basophil-like cells (RBL-2H3); assay: β-hexosaminidase release inhibition test (degranulation of IgE-sensitised, DNP-BSA-stimulated cells); assay type: cell-based; conditions: for IC50: read-out: 50% β-hexosaminidase release inhibitory concentration (IC50)
Method: In the Examples, the degree of cell degranulation was assessed through determination of β-hexosaminidase activity. In a specific procedure, basophil-like cells (RBL-2H3, Human Science Laboratory Resource Bank) were suspended in a Dulbecco's modified Eagle's medium (DMEM, product of Gibco) containing a 10% fetal calf serum, and the suspension was incubated overnight at 37° C. in a 96-well plate (2.5×10^5 cells/mL) in the presence of 0.1 μg/mL anti-dinitrophenyl (DNP)-IgE antibody (product of SIGMA).
The thus-treated basophil-like cells (RBL-2H3) were washed with phosphate buffer (PBS) and further incubated at 37° C. for 30 minutes in the presence of each test substance (Examples 1 to 6 and Comparative Examples 1 to 3) at a predetermined concentration. The concentrations at which incubation was performed were 0.1, 0.2, 0.3, 0.4, and 0.5 μM (ACNQ); 20, 30, 40, 60, and 80 μM (DHNA); 60, 70, 80, 90, and 100 μM (2-methyl-1,4-naphthoquinone (vitamin K3)); 10, 20, 30, 40, and 50 μM (4-amino-2-methyl-1-naphthol (vitamin K5)); 10, 20, 30, 40, and 50 μM (1,4-naphthoquinone); 3, 4, 5, 6, and 7 μM (2-amino-3-chloro-1,4-naphthoquinone); 50 and 100 μM (vitamin K1); 25, 50, and 100 μM (vitamin K2); and 50 and 100 μM (1,3-naphthalenediol).
The thus-incubated basophil-like cells (RBL-2H3) were washed with PBS, and further incubated at 37° C. for one hour in the presence of 1-μg/mL DNP-BSA (product of SSL). After completion of incubation, a supernatant was recovered from each well, and the activity of β-hexosaminidase contained in each supernatant was determined. The activity of β-hexosaminidase remaining in the cells was also determined through solubilizing the remaining cells with 0.1% polyoxyethylene(10)octylphenyl ether/DMEM.
Each of the thus-obtained supernatants and cell solubilized liquids was added to a 96-well plate (50 μL/well), and 2 mM p-nitrophenyl N-acetyl-β-D-glucosaminide (product of SIGMA) serving as a substrate was added thereto (50 μL/well). After incubation at 37° C. for two hours, a suppressor (1M Tris, pH: 9.0) was added thereto (150 μL/well), and the absorbance at 415 nm was measured by means of a plate reader. For assessing degranulation, percent β-hexosaminidase release (%) was calculated through the following formula: Percent β-hexosaminidase release (%)=100×(OD415 of supernatant)/(OD415 of supernatant+OD415 of solubilized cells).
The β-hexosaminidase activity of supernatant was determined as described above. The β-hexosaminidase activity of a supernatant of basophil-like cells (RBL-2H3) incubated in the presence of each of the test substances of Examples 1 to 6 and Comparative Examples 1 to 3) was measured, whereby 50% β-hexosaminidase release inhibitory concentration (IC50) was calculated.

[2] = tested on: PCA reaction; assay: PCA reaction, Evans Blue leakage to ear auricles; assay type: in vivo; conditions: ICR mice, 100 μg/kg perorally one hour before PCA induction, compared with CMC sodium-administered group, P<0.05 t-test (FIG. 3)
Method: ICR mice (female, 6-week old) were preliminarily bred and grouped into the following three groups such that these groups had the same average body weight: Group 1, 0.5% carboxy-methyl-cellulose (CMC) sodium-administered group (Comparative Example 4); Group 2, ACNQ (100 μg/kg)-administered group (Example 7); and Group 3, PCA-non-induced group (Comparative Example 5). Groups 1 and 2 each included 8 mice, and Group 3 included 4 mice. Group 1 (CMC sodium-administered group) served as a control group with respect to Group 2 (ACNQ-administered group).
To each of the ICR mice of Groups 1 and 2, an anti-DNP-IgE antibody (100 ng/body) was intradermally administered through an ear auricle. Instead of the anti-DNP-IgE antibody, physiological saline was administered in a similar manner to each of the ICR mice of Group 3. […]
Subsequently, one hour after administration of each test substance, DNP-bound BSA (0.25 mg/body) serving as an antigen and Evans Blue were intravenously administered to each of the ICR mice of Groups 1 to 3, to thereby induce PCA. […] The absorbance of each extract at 620 nm was determined, to thereby calculate the Evans Blue level leaked to the ear auricle.

[3] = tested on: basophil-like cells (RBL-2H3); conditions: Non-Patent Document 2; cited from earlier work
[4] = Rattus norvegicus, RBL-2H3, 0.5 h, RBL-2H3, 30 minutes incubation with test substance, DNP-BSA stimulation
[5] = Rattus norvegicus, RBL-2H3, 0.5 h, RBL-2H3, same IC50 expressed in μg/mL
[6] = Rattus norvegicus, RBL-2H3, RBL-2H3, same IC50 expressed in μg/mL
[7] = RBL-2H3, 30 minutes incubation with test substance, DNP-BSA stimulation
[8] = RBL-2H3, same IC50 expressed in μg/mL

Row | Compound | IC50 [1, 4] [µM] | IC50 [1, 5] [µg/mL] | IC50 [1, 6] [µg/mL] | further results
1 | Oc1cc(O)c2ccccc2c1 [1,3-Naphthalenediol, 1,3-naphthalenediol, reference compound] |  |  |  | IC50 ([1]; Rattus norvegicus, RBL-2H3, 0.5 h): > 100 µM and > 16 µg/mL
2 | Cc1cc(N)c2ccccc2c1O [Vitamin K5, 4-amino-2-methyl-1-naphthol] | ~30 | 6.1 | 6.1 | 
3 | CC1=C(C/C=C(\C)CCC[C@H](C)CCC[C@H](C)CCCC(C)C)C(=O)c2ccccc2C1=O [Vitamin K1, phylloquione, reference compound] |  |  |  | IC50 [1, 7]: > 100 µM; 50% β-hexosaminidase release inhibitory concentration (IC50) [1, 8]: (>45.1 μg/mL)
4 | NC1=C(C(=O)O)C(=O)c2ccccc2C1=O [ACNQ, 2-amino-3-carboxy-1,4-naphthoquinone] | 0.25 | 0.0545 | 0.0545 | percent β-hexosaminidase release, relative to that of sample containing no test substance (0 μM) ([1]; ACNQ concentration ≧0.4 μM (FIG. 1)): about 20%; Evans Blue level leaked to the ear auricle [2]: significantly lowered
5 | CN1CCC(=C2c3ccccc3CC(=O)c3sccc32)CC1 [ketotifen fumarate, 4-(1-methyl-4-piperidylidene-4H-benzo[4,5]-cyclohepta[1,2-b]-thiophen-10(9H)-one hydrogen fumarate] |  |  |  | IC50 [3]: 214 µM; IC50 to basophil-like cells (RBL-2H3) [3]: 91 µg/mL
6 | O=C1C=CC(=O)c2ccccc21 [1,4-Naphthoquione, 1,4-naphthoquinone] | ~30 | 4.7 | 4.7 | 
7 | CC1=CC(=O)c2ccccc2C1=O [Vitamin K3, 2-methyl-1,4-naphthoquinone] | ~50 | 11.5 | 11.5 | 
8 | O=C(O)c1cc(O)c2ccccc2c1O [DHNA, 1,4-dihydroxy-2-naphthoic acid] | ~50 | 8.2 | 8.2 | percent β-hexosaminidase release, relative to that of sample containing no test substance (0 μM) ([1]; DHNA concentration ≧60 μM (FIG. 2)): about 20%
9 | COc1ccc(C=CC(=O)Nc2ccccc2C(=O)O)cc1OC [tranilast, N-(3,4-dimethoxycinnamoyl)anthranilic acid] |  |  |  | IC50 [3]: 492 µM; IC50 to basophil-like cells (RBL-2H3) [3]: 161 µg/mL (≈ 492 µM)
10 | NC1=C(Cl)C(=O)c2ccccc2C1=O [2-Amino-3-chloro-1,4-naphthoquinone, 2-amino-3-chloro-1,4-naphthoquinone] | 6.8 | 1.4 | 1.4 | 
11 | menaquinone [Vitamin K2, reference compound] |  |  |  | IC50 [1, 7]: > 100 µM; 50% β-hexosaminidase release inhibitory concentration (IC50) [1, 8]: (>44 μg/mL)

Reference: US8093301B2, “Anti-allergic agent” (Meiji Co., Ltd., priority 2005, dated 2012)
